From article PMC11408123, “Deciphering the SAM- and metal-dependent mechanism of O-methyltransferases in cystargolide and belactosin biosynthesis: A structure–activity relationship study” (The Journal of Biological Chemistry, 2024)

Legend:
CysG^ΔN16 [1] = biological target: T1, CysG^ΔN16 (Kitasatospora cystarginea, UniProt A0A1W6R556); experiment: HPLC-MS turnover assay, semi-quantitative; assay type: biochemical; details: 1 mM substrate, 1 mM SAM, 5 μM enzyme, 20 mM divalent metal ion, 50 mM Tris-HCl, 30 °C, 3 h
T1 construct: N-terminal truncation lacking the first 16 residues, His6-SUMO tag removed, E. coli BL21(DE3); electron density for residues 17-229

CysG^fl = biological target: T2, CysG^fl (Kitasatospora cystarginea, UniProt A0A1W6R556); experiment: HPLC-MS turnover assay, semi-quantitative; assay type: biochemical; details: 1 mM substrate, 1 mM SAM, 5 μM enzyme, 20 mM Ca2+, 50 mM Tris-HCl, 30 °C, 3 h
T2 construct: full length, codon-optimised gene, N-terminal His6-SUMO tag removed, E. coli BL21(DE3)

BelI = biological target: T3, BelI (Streptomyces sp., UniProt A0A1W6R583); experiment: HPLC-MS turnover assay, semi-quantitative; assay type: biochemical; details: 1 mM substrate, 1 mM SAM, 5 μM enzyme, 20 mM Ca2+, 50 mM Tris-HCl, 30 °C, 3 h
T3 construct: full length, codon-optimised gene, N-terminal His6-SUMO tag removed, E. coli BL21(DE3); electron density for residues 17-228

CysG^ΔN16 [2] = biological target: T1, CysG^ΔN16; experiment: X-ray crystal structure, […] Å; assay type: binding; details: with Ca2+ bound at His122-His123-Asp191; methyl donor site
CysG^ΔN16 [3] = biological target: T4, CysG^ΔN16 (Kitasatospora cystarginea, UniProt A0A1W6R556, R22K); experiment: X-ray crystal structure; assay type: binding; details: methyl donor site
T4 construct: N-terminal truncation lacking the first 16 residues, His6-SUMO tag removed, E. coli BL21(DE3); electron density for residues 17-229

In the case of `CC(C)[C@H](C(=O)O)[C@@H](O)C(=O)O` [3IPM], the “HPLC-MS turnover assay, semi-quantitative” value (shortened to “HPLC-MS turnover assay”) (CysG^ΔN16 [1]) is reported as “N-terminally truncated CysG^ΔN16 variant was active with metal ions available” and the “HPLC-MS turnover assay” value (CysG^fl) is reported as “The assay was started by the addition of 3IPM for CysG and 3SBM for BelI”.

In the case of `CCC(C)C(C(=O)O)C(O)C(=O)O` (centres unmarked) [3SBM], the “HPLC-MS turnover assay” value (BelI) is reported as “The assay was started by the addition of 3IPM for CysG and 3SBM for BelI”.

With `Nc1ncnc2c1ncn2[C@@H]1O[C@H](CSCC[C@H](N)C(=O)O)[C@@H](O)[C@H]1O` [SAH] the “X-ray crystal structure, 1.5 Å” value (CysG^ΔN16 [2]) was “crystal structures of CysG^ΔN16 in complex with S-adenosylhomocysteine (SAH)”.

With `C[S+](CC[C@H](N)C(=O)O)C[C@H]1O[C@@H](n2cnc3c(N)ncnc32)[C@H](O)[C@@H]1O` (some centres unmarked) [SAM] the X-ray crystal structure (CysG^ΔN16 [3]) was “CysG^ΔN16-R22K variant (PDB ID: 9FCY) maintains SAM coordination”.
